# Source: US12180187B2, “1-phenyl-5-azinylpyrazolyl-3-oxyalkyl acids and their use for controlling unwanted plant growth” (BAYER AKTIENGESELLSCHAFT, priority 2019, dated 2024)
# How the values were obtained:
# ABUTH [1] = assay: Pre-emergence action against ABUTH, 1280 g/ha; type: in vivo, Abutilon theophrasti; conditions: scored visually after about 3 weeks vs untreated controls (100% = plants have died)
# In short: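 Greenhouse pre-emergence test on sown seeds in sandy loam; soil-surface spray of formulated compound with 0.5% additive at 600 L/ha water. Scored visually, % vs untreated, after about 3 weeks.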
# LOLRI [2] = assay: Pre-emergence action at 320 g/ha against LOLRI; type: in vivo, Lolium rigidum; conditions: visual scoring after about 3 weeks vs untreated controls
# In short: (§1)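 Pre-emergence soil-surface spray: WP or EC formulation, aqueous, 0.5% additive, 600 l/ha water volume. Greenhouse growth about 3 weeks; visual percent effect relative to untreated pots.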
# MATIN [3] = assay: Pre-emergence action at 320 g/ha against MATIN; type: in vivo, Tripleurospermum inodorum (Matricaria inodora); conditions: visual scoring after about 3 weeks vs untreated controls
# In short: as §1
# VERPE [4] = assay: Pre-emergence action at 320 g/ha against VERPE; type: in vivo, Veronica persica; conditions: visual scoring after about 3 weeks vs untreated controls
# In short: as §1
# VIOTR = assay: Pre-emergence action at 320 g/ha against VIOTR; type: in vivo, Viola tricolor; conditions: dosage 320 g/ha
# In short: as §1
# ALOMY [5] = assay: Post-emergence action against ALOMY, 1.28 kg/ha; type: in vivo, Alopecurus myosuroides; conditions: dosage 1280 g/ha, visual rating about 3 weeks after treatment vs untreated controls
# In short: (§2)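 Foliar application at the one-leaf stage: compound as WP or EC in water with 0.5% additive, sprayed at 600 L/ha. Plants are kept about 3 weeks in the greenhouse, then % herbicidal action is estimated visually (100% = death).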
# DIGSA = assay: Post-emergence action against DIGSA, 1.28 kg/ha; type: in vivo, Digitaria sanguinalis; conditions: dosage 1280 g/ha, visual rating about 3 weeks after treatment vs untreated controls
# In short: as §2
# LOLRI [6] = assay: Post-emergence action against LOLRI, 1.28 kg/ha; type: in vivo, Lolium rigidum; conditions: dosage 1280 g/ha, visual rating about 3 weeks after treatment vs untreated controls
# In short: as §2
# ABUTH [7] = assay: Post-emergence action against ABUTH, 1.28 kg/ha; type: in vivo, Abutilon theophrasti; conditions: dosage 1280 g/ha, visual rating about 3 weeks after treatment vs untreated controls (100% = plants died)
# In short: as §2
# MATIN [8] = assay: Post-emergence action against MATIN, 1.28 kg/ha; type: in vivo, Tripleurospermum inodorum (Matricaria inodora); conditions: dosage 1280 g/ha, visual rating about 3 weeks after treatment vs untreated controls (100% = plants died)
# In short: as §2
# VERPE [9] = assay: Post-emergence action against VERPE, 1.28 kg/ha; type: in vivo, Veronica persica; conditions: dosage 1280 g/ha, visual rating about 3 weeks after treatment vs untreated controls (100% = plants died)
# In short: as §2
# ALOMY [10] = assay: Post-emergence action against ALOMY, 320 g/ha; type: in vivo, Alopecurus myosuroides; conditions: dosage 320 g/ha, visual rating about 3 weeks after treatment vs untreated controls (100% = plants died)
# In short: (§3)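 Herbicidal effect is scored by eye about 3 weeks after a foliar spray and expressed as percent activity, with untreated plants as 0% and dead plants as 100%. Treatment is applied at the one-leaf stage of greenhouse-grown, soil-sown plants, at a water rate of 600 l/ha containing 0.5% additive.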
# SETVI = assay: Post-emergence action at 320 g/ha against SETVI; type: in vivo, Setaria viridis; conditions: visual rating about 3 weeks after treatment vs untreated controls
# In short: as §3
# ECHGC = assay: Pre-emergence action at 320 g/ha against ECHGC; type: in vivo, Echinochloa crus-galli; conditions: visual scoring after about 3 weeks vs untreated controls
# In short: as §1
Compound,Pre-emergence action against ABUTH (ABUTH [1]),Pre-emergence action against LOLRI in % (LOLRI [2]),Pre-emergence action against MATIN in % (MATIN [3]),Pre-emergence action against VERPE in % (VERPE [4]),Pre-emergence action against VIOTR in % (VIOTR),Post-emergence action against ALOMY (ALOMY [5]),Post-emergence action against DIGSA (DIGSA),Post-emergence action against LOLRI (LOLRI [6]),Post-emergence action against ABUTH (ABUTH [7]),Post-emergence action against MATIN (MATIN [8]),Post-emergence action against VERPE (VERPE [9]),Post-emergence action against ALOMY (ALOMY [10]),Post-emergence action against SETVI in % (SETVI),Pre-emergence action against ECHGC in % (ECHGC)
COC(=O)CNC(=O)COc1nn(-c2ccccc2F)c(-c2ccc(F)nc2)c1C(F)(F)F [Example X-007],90%,100%,100%,100%,100%,100%,100%,100%,90%,90%,90%,100%,80%,–
CCOC(=O)COc1nn(-c2ccccc2F)c(-c2ccc(F)nc2)c1I [VII-036],90%,–,90%,100%,100%,100%,100%,100%,90%,100%,100%,90%,90%,90%
O=C(O)COc1nn(-c2ccccc2F)c(-c2ccc(F)nc2)c1I [VII-037],–,100%,80%,100%,100%,100%,90%,90%,90%,90%,100%,100%,80%,80%
COCCOC(=O)COc1nn(-c2ccccc2F)c(-c2ccc(F)nc2)c1Br [VII-052],100%,100%,90%,90%,100%,100%,100%,–,90%,100%,100%,90%,–,90%
CCOC(=O)C(C)Oc1nn(-c2ccccc2F)c(-c2ccc(F)nc2)c1I (centres unmarked) [VII-057],90%,90%,90%,–,100%,100%,100%,–,–,100%,90%,80%,80%,–
COC(=O)[C@@H](C)Oc1nn(-c2cc(F)ccc2F)c(-c2ccc(F)nc2)c1Br [VII-062],90%,100%,100%,100%,100%,100%,100%,100%,–,–,100%,90%,–,–
CCOC(=O)C(C)Oc1nn(-c2ccccc2F)c(-c2ccc(F)nc2)c1C(F)(F)F (centres unmarked) [VII-066],–,90%,100%,100%,100%,100%,100%,100%,90%,90%,90%,90%,–,90%
O=C(COc1nn(-c2ccccc2F)c(-c2ccc(F)nc2)c1Br)OCC1CCOC1 (centres unmarked) [VII-091],90%,100%,90%,100%,100%,100%,100%,100%,90%,90%,100%,90%,80%,–
O=C(COc1nn(-c2ccccc2F)c(-c2ccc(F)nc2)c1Br)OCC1OCCO1 [VII-103],90%,100%,90%,100%,100%,100%,100%,100%,–,90%,100%,100%,80%,80%
COC(=O)[C@H](C)Oc1nn(-c2cc(F)ccc2F)c(-c2ccc(F)nc2)c1Br [VII-107],–,80%,90%,80%,100%,100%,100%,–,90%,100%,100%,90%,80%,–
CCOC(=O)COc1nn(-c2ccccc2F)c(-c2ccc(F)nc2)c1C [VII-117],90%,100%,90%,90%,100%,–,100%,100%,–,90%,100%,90%,80%,90%
COC(=O)[C@@H](C)Oc1nn(-c2cc(F)ccc2F)c(-c2cncc(F)c2)c1C#N [VII-147],90%,100%,90%,100%,100%,100%,100%,100%,90%,100%,100%,90%,80%,100%
